The term IC50 denotes the point on the concentration scale where inhibition reaches its midpoint. The low end stands for higher potency, the high end for lower potency.

The record followed here is patent US10221158B2, “Heterocyclic constrained tricyclic sulfonamides as anti-cancer agents” (ICAHN SCHOOL OF MEDICINE AT MOUNT SINAI, priority 2015, dated 2019).

The assay has as its system H1650 lung cancer cells. In words: Cell viability assay (MTT, IC50 determination). As to conditions: Homo sapiens, NCI-H1650, 48 h drug treatment. It counts as cell-based. As for the experimental part:
Cell Viability Assays (IC50 Determination)
Cell viability assays were performed according to Denizot, F. and R. Lang, Journal of Immunological Methods, 1986. 89(22): p. 271-277. H1650 lung cancer cells were plated at 150,000 cells per well in a 12 well plate. Twenty-four hours after plating, cells were treated as described with increasing concentrations of drug and control. Forty-eight hours after drug treatment, cells were treated with 100 μL of 3-(4,5-Dimethylthiazol-2-yl)-2,5-diphenyltetrazolium bromide (MTT) and incubated for 2 hours at 37 C. The MTT solution was subsequently replaced with 300 μL of n-propyl alcohol and re-aliquoted to a 96 well plate. Spectrophotometric analysis of each solution was performed using a 96 well plate reader at 600 nm in triplicate.

The compound `O=S(=O)(N[C@@H]1COC[C@H](N2c3ccccc3CCc3ccccc32)[C@H]1O)c1ccc(OC(F)(F)F)cc1` (racemic) [Example 1, Rac-N-((3R,4R,5S)-5-(10,11-dihydro-5H-dibenzo[b,f]azepin-5-yl)-4-hydroxytetrahydro-2H-pyran-3-yl)-4-(trifluoromethoxy)benzenesulfonamide] returned an IC50 of 15 µM.
